The record followed here is patent US20030022241A1, “Methods” (priority 2001, published 2003).

This assay has as its target native MNK-2B (Homo sapiens, UniProt Q9HBH9). The assay can be described thus: NMR screening (Saturation Transfer Difference) for compounds binding Mnk2b. The following applies: screen: 1 μM native MNK-2B, 200 μM compound mixture; confirmation: 2 μM native Mnk2B, 250 μM individual compound; pH 7.5, 20° C. The source says:
A diversity library consisting of relatively small and highly water-soluble compounds was used to screen native MNK-2B for binders by NMR (Nuclear Magnetic Resonance). The NMR tecinique used to identify binders was Saturation Transfer Difference (STD): the protein ^1H resonances are saturated by means of a weak radio-frequency field applied to a narrow spectral region. The saturation is transferred by spin diffusion to the rest of the protein and subsequently further to compounds that bind to the protein attenuating their signals in the NMR spectrum. The spectrum is then subtracted from a spectrum obtained at non-saturating conditions to obtain an STD spectrum showing only the signals from compounds interacting with the protein. In practice the pulse sequence is written in such a way that the subtraction is done automatically in every other scan, i.e. the individual spectra are never observed (Mayer & Meyer, Angew. Chem. Int. Ed., 38, 1784-1788, 1999).
The compounds in the library are divided into mixtures consisting of 4-8 compounds each. Each sample contained 1 μM native MNK-2B, 200 μM compound mixture, 50 mM sodium phosphate buffer, 1 mM DTT, pH 7.5 in ca 98% D2O/2% H2O. […] The volume was 600 μl and standard NMR tubes were used. […] A reference ^1H 1D experiment and an STD experiment were recorded on each sample. […]

Each structure is given as a SMILES string.

native MNK-2B, sequence (Q9HBH9 1-414 isoform Q9HBH9-2): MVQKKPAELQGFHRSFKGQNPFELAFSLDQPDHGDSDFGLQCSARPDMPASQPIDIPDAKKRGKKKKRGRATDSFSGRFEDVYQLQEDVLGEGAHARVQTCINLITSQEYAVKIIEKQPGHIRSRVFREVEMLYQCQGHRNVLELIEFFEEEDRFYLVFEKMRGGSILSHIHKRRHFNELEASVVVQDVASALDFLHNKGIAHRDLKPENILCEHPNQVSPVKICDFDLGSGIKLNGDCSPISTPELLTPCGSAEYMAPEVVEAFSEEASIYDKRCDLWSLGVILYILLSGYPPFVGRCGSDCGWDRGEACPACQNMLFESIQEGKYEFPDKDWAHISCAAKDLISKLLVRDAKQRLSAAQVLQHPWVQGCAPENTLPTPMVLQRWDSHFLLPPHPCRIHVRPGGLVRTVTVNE

Turning to `COC(=O)c1ccc(O)cc1` [4-hydroxy-benzoic acid methyl ester], the “binding to Mnk2b by STD NMR (identified as ligand)” value is listed as “identified as Mnk2b ligands”.
